# Reference: patent US20080311657A1, “Killing Human Lymphoma and Leukemia Cancer Cells and Tcr-Activated Normal Human Cells By Dopamine D1r Agonists” (priority 2005, published 2008)
# Values joined by “and” are separate entries in the source; they are usually repeats but may differ in a detail not shown here. Equal values may be shown once. “Also recorded” adds a separate entry of the source.
# Legend:
# [1] = system: Human chronic myelogenous leukemia cells (CML) (K-562); assay: Number of living cells counted by flow cytometry (FACSort) after D1R agonist; assay type: cell-based; settings: added four times during 1 hour, counted 3 days later
# Description: (§1) Human chronic myelogenous leukemia cells (CML) (K-562) were seeded in 96 well plates (0.5 ml per well of 0.5 million cells/ml) and A 77636 hydrochloride was added and diluted 1:00 into the wells at starting concentrations of 10^−1M-10^−4M, so that the final concentration range tested was 10^−3M-10^−6M. Afterwards, the microtiter plates were placed in an incubator (37° C., humidified incubator, 5% CO2) for 3 days. Then, the number of living cells was evaluated by flow cytometry (the cells were counted by FACsort for a fixed time length of 1 min, in which 100 microliter of each sample was tested).
# as §1, with “68930” for “77636”
# as §1, with “SKF 38393 hydrobromide” for “A 77636 hydrochloride”
# (§2) Human chronic myelogenous leukemia cells (CML) (K-562) were seeded in 96 well plates (0.5 ml per well of 0.5 million cells/ml) and A 77636 hydrochloride was added and diluted 1:00 into the wells, at a fixed starting concentration of 10^−2M, so that the final concentration tested was 10^−4M. The experiment was designed to test the effect of exposing the cells to the D1R agonist for 1 min, 15 min, 1 hr or 72 hr. Thus, 1 min, or 15 min or 1 hr after the addition of the D1R agonist, the corresponding cells were transferred into tubes, centrifuged (1000 rpm for 10 min), and the supernatant was removed. […] Thus, its medium was not replaced, and these cells and remained as such in the incubator for 72 hr. At the end of the 72 hr incubation, the number of living cells was evaluated by flow cytometry (the cells were counted by FACsort for a fixed time length of 1 min, in which 100 microliter of each sample was tested).
# (§3) Cell viability was tested afterwards.
# (§4) For this purpose, the Jurkat T-cell leukemia line, the HuT-78 human T-lymphoma (cutaneous “Sezary” T-lymphoma) line, and the K-562 human Chronic-Myeloid Leukemia (CML) and Daudi Human B-lymphoma (Burkitt's lymphoma) lines were seeded in tissue culture wells (0.5 million cells/0.5 ml/well).
# (§5) Cell survival/death was evaluated 3 days later by counting the number of living cells, using flow cytometry.
# The effect of dopamine itself (that can of course activate all its D1R-5 receptors) was also tested. All of these molecules were tested at a similar concentration (10^−4 M). […] The specificity and restriction of the effect to the D1R is also seen in Tables 7 and 8.
# [2] = system: Human cutaneous Sezary T-lymphoma cells (HuT-78); assay: as above; assay type: cell-based; settings: added four times during 1 hour, counted 3 days later
# [3] = system: Human T-cell leukemia (Jurkat); assay: Cell death by LDH release (CytoTox 96); assay type: cell-based; settings: FDM 10^−4M-10^−12M, added four times during 1 hour
# Description: as §3
# [4] = system: Human Burkitt's B-Cell Lymphoma (Daudi); assay: Cell death by LDH release (CytoTox 96); assay type: cell-based
# Description: as §3
# [5] = system: Human Chronic Myeloid Leukemia (CML, K-562); assay: Cell death by LDH release (CytoTox 96); assay type: cell-based; settings: FDM 10^−4M-10^−12M, added four times during 1 hour
# [6] = system: TCR-activated normal human T-cells; assay: Cell death by LDH release (CytoTox 96); assay type: cell-based; settings: FDM 10^−4M-10^−10M, added four times during 1 hour; methanesulfonate
# Description: Non-tissue culture treated 24-well plates (Falcon, Franklin Lakes, N.J.) were coated overnight at 4° C. with anti-CD3 and anti-CD28 monoclonal antibodies (mabs) (BD Pharmingen, San Jose, Calif.); ([…] in PBS). The wells were then washed with PBS, blocked for 1 hour at 37° C. (PBS/1% BSA), and washed again. The freshly purified normal human T-cells were resuspended in their respective fresh media and seeded in the anti-CD3/CD28 coated wells (1×10^6 per well), and the plates were incubated for 72 hours (37° C., humidified incubator, 5% CO2). Then, the cells and their media were collected from each well, transferred into 50 ml tubes, centrifuged (1200 rpm, 10 minutes) and both the TCR-activated cells and their culture media were collected and transferred into clean separate tubes.
# as §3
# [7] = system: Human T-cell leukemia (Jurkat) cells; assay: Number of living cells counted by flow cytometry (FACSort) after D1R agonist; assay type: cell-based; settings: added four times during 1 hour, counted 3 days later
# Description: Afterwards, the microtiter plates were placed in an incubator (37° C., humidified incubator, 5% CO2) for 3 days. Then, the number of living cells was evaluated by flow cytometry (the cells were counted by FACsort for a fixed time length of 1 min, in which 100 microliter of each sample was tested). Of note, A 77636 hydrochloride is an orally-active D1R agonist, according to the manufacturer (Tocris).
# Afterwards, the microtiter plates were placed in an incubator (37° C., humidified incubator, 5% CO2) for 3 days. Then, the number of living cells was evaluated by flow cytometry (the cells were counted by FACsort for a fixed time length of 1 min, in which 100 microliter of each sample was tested).
# as §2, with “The” for “Human chronic myelogenous leukemia cells (CML) (K-562) were seeded in 96 well plates (0.5 ml per well of 0.5 million cells/ml) and A 77636 hydrochloride was added and diluted 1:00 into the wells, at a fixed starting concentration of 10^−2M, so that the final concentration tested was 10^−4M. The”, “min);” for “min),”
# as §3, §4, §5
# [8] = patients receiving the 48 hour FDA-approved infusion; cited from earlier work
# [9] = system: Human T-Cell Lymphoma (HuT-78); assay: Cell death by LDH release (CytoTox 96); assay type: cell-based; settings: FDM 10^−4M-10^−12M, added four times during 1 hour
# α2-adrenoceptors = settings: cited from earlier work
# α1 adrenoceptors = settings: cited from earlier work
# β adrenoceptors = settings: cited from earlier work
# muscarinic receptors = settings: cited from earlier work
# 5HT1 receptors = settings: cited from earlier work
# 5HT2 receptors = settings: cited from earlier work
# [10] = system: Human T-Cell Lymphoma (HuT-78); assay: Cell death by LDH release (CytoTox 96); assay type: cell-based
# Description: as §3
# (§6) Tables 3 and 4 show results of experiments designed primarily for studying the kinetics of the effect (herein fenoldopam hydrobromide was tested only at a concentration range of 10^−4 M-10^−6 M), and indicate that already after 1 minute of fenoldopam hydrobromide addition, there is an increased LDH. Yet, the extent of death increased gradually with time (10, 30 and 60 minutes), and after 1 hour the cancer cells released dramatic levels of LDH, indicating massive cell death.
# [11] = system: Human Chronic Myeloid Leukemia (CML, K-562); assay: Cell death by LDH release (CytoTox 96); assay type: cell-based
# Description: as §3, §6
# D2-like receptors = settings: cited from earlier work
compound,measurement,setting,value
"CS(=O)(=O)O.Oc1ccc(C2CNCCc3c2cc(O)c(O)c3Cl)cc1 (stereo not shown) [FDM, 6-chloro-2,3,4,5-tetrahydro-1-(4-hydroxyphenyl)-[1H]-3-benzazepine-7,8-diol methanesulfonate]",% Dead Cells,[1]; FDM 10^−4M,100%
same,No. of Living Cells,[1]; FDM 10^−4M,21
same,% Dead Cells,[1]; FDM 10^−6M,34%
same,No. of Living Cells,[1]; FDM 10^−6M,18680
same,No. of Living Cells,[1]; FDM 10^−8M,21137
same,% Dead Cells,"[1]; FDM 10^−8M, methanesulfonate",25% and 26%
same,% Dead Cells,[1]; FDM 10^−10M,25%
same,No. of Living Cells,[1]; FDM 10^−10M,21476
same,% Dead Cells,[1]; FDM 10^−12M,33%
same,No. of Living Cells,[1]; FDM 10^−12M,19250
same,% Dead Cells,[2]; FDM 10^−4M,99%
same,No. of Living Cells,[2]; FDM 10^−4M,213
same,% Dead Cells,[2]; FDM 10^−6M,28%
same,No. of Living Cells,[2]; FDM 10^−6M,17023
same,No. of Living Cells,[2]; FDM 10^−8M,16080
same,% Dead Cells,"[2]; FDM 10^−8M, methanesulfonate",32%
same,% Dead Cells,[2]; FDM 10^−10M,38%
same,No. of Living Cells,[2]; FDM 10^−10M,14728
same,% Dead Cells,[2]; FDM 10^−12M,46%
same,No. of Living Cells,[2]; FDM 10^−12M,12662
same,"Killing evident by LDH release (FIG. 2), in words",[3],kills human T-cell leukemia in a dose dependent manner
same,"Killing evident by LDH release (FIG. 5), in words","[4]; FDM 10^−4M-10^−12M, added four times during 1 hour",kills human Burkitt's B-lymphoma in a dose dependent manner
same,"Killing evident by LDH release (FIG. 4), in words",[5],kills human chronic myelogenous leukemia (CML) in a dose dependent manner
same,"Killing evident by LDH release (FIG. 8), in words",[6],"marked death; also recorded: kills human TCR-activated T-cells, in a dose dependent manner"
same,% Dead Cells,[7]; FDM 10^−4M,~100%
same,No. of Living Cells,[7]; FDM 10^−4M,4
same,% Dead Cells,[7]; FDM 10^−6M,18%
same,No. of Living Cells,[7]; FDM 10^−6M,15938
same,No. of Living Cells,[7]; FDM 10^−8M,7451
same,% Dead Cells,"[7]; FDM 10^−8M, methanesulfonate",62%
same,% Dead Cells,[7]; FDM 10^−10M,52%
same,No. of Living Cells,[7]; FDM 10^−10M,9472
same,% Dead Cells,[7]; FDM 10^−12M,46%
same,No. of Living Cells,[7]; FDM 10^−12M,10568
same,Approximate steady state concentration in the circulation,[8],~10^−8 M
same,"Killing evident by LDH release (FIG. 3), in words",[9],kills human cutaneous Sezary T-cell lymphoma in a dose dependent manner
Oc1ccc(C2CNCCc3c2cc(O)c(O)c3Cl)cc1 (stereo not shown) [Fenoldopam],"Affinity, in words",α2-adrenoceptors,moderate affinity
same,"Affinity, in words",α1 adrenoceptors,no significant affinity
same,"Affinity, in words",β adrenoceptors,no significant affinity
same,"LDH Release (OD), Average","[4]; Fenoldopam 10^−4M, 1 hour",0.9595 OD
same,"LDH Release (OD), OD Duplicates","[4]; Fenoldopam 10^−4M, 1 hour",0.961 OD and 0.958 OD
same,"LDH Release (OD), Average","[4]; Fenoldopam 10^−5M, 1 hour",1.0025 OD
same,"LDH Release (OD), OD Duplicates","[4]; Fenoldopam 10^−5M, 1 hour",0.99 OD and 1.015 OD
same,"LDH Release (OD), Average","[4]; Fenoldopam 10^−6M, 1 hour",0.526 OD
same,"LDH Release (OD), OD Duplicates","[4]; Fenoldopam 10^−6M, 1 hour",0.525 OD and 0.527 OD
same,"LDH Release (OD), Average","[4]; Fenoldopam 10^−7M, 1 hour",0.5365 OD
same,"LDH Release (OD), OD Duplicates","[4]; Fenoldopam 10^−7M, 1 hour",0.55 OD and 0.523 OD
same,"LDH Release (OD), Average","[4]; Fenoldopam 10^−8M, 1 hour",1.339 OD
same,"LDH Release (OD), OD Duplicates","[4]; Fenoldopam 10^−8M, 1 hour",1.316 OD and 1.362 OD
same,"LDH Release (OD), Average","[4]; Fenoldopam 10^−9M, 1 hour",0.899 OD
same,"LDH Release (OD), OD Duplicates","[4]; Fenoldopam 10^−9M, 1 hour",0.903 OD and 0.895 OD
same,Concentration of maximal killing,"[4]; LDH release, 1 hour, Table 2",10^−8 M
same,"Affinity, in words",muscarinic receptors,no significant affinity
same,"Affinity, in words",5HT1 receptors,no significant affinity
same,"Affinity, in words",5HT2 receptors,no significant affinity
same,"Release of LDH (OD), Average OD",[10]; Fenoldopam 10^−4M 1 Min,0.8135 OD
same,"Release of LDH (OD), OD Duplicates",[10]; Fenoldopam 10^−4M 1 Min,0.786 OD and 0.841 OD
same,"Release of LDH (OD), Average OD",[10]; Fenoldopam 10^−4M 10 Min,1.4355 OD
same,"Release of LDH (OD), Average OD",[10]; Fenoldopam 10^−4M 30 Min,3.087 OD
same,"Release of LDH (OD), OD Duplicates",[10]; Fenoldopam 10^−4M 30 Min,3.015 OD and 3.159 OD
same,"Release of LDH (OD), Average OD",[10]; Fenoldopam 10^−4M 60 Min,2.8775 OD
same,"Release of LDH (OD), OD Duplicates",[10]; Fenoldopam 10^−4M 60 Min,2.688 OD and 3.067 OD
same,"Release of LDH (OD), Average OD",[10]; Fenoldopam 10^−5M 60 Min,2.9465 OD
same,"Release of LDH (OD), OD Duplicates",[10]; Fenoldopam 10^−5M 60 Min,2.907 OD and 3.022 OD
same,"Release of LDH (OD), Average OD",[10]; Fenoldopam 10^−6M 60 Min,0.7625 OD
same,"Release of LDH (OD), OD Duplicates",[10]; Fenoldopam 10^−6M 60 Min,0.759 OD and 0.766 OD
same,"Release of LDH (OD), Average OD",[11]; Fenoldopam 10^−4M 1 Min,1.081 OD
same,"Release of LDH (OD), OD Duplicates",[11]; Fenoldopam 10^−4M 1 Min,1.081 OD
same,"Release of LDH (OD), Average OD",[11]; Fenoldopam 10^−4M 10 Min,0.863 OD
same,"Release of LDH (OD), OD Duplicates",[11]; Fenoldopam 10^−4M 10 Min,0.868 OD and 0.858 OD
same,"Release of LDH (OD), Average OD",[11]; Fenoldopam 10^−4M 30 Min,2.7755 OD
same,"Release of LDH (OD), OD Duplicates",[11]; Fenoldopam 10^−4M 30 Min,2.737 OD and 2.814 OD
same,"Release of LDH (OD), Average OD",[11]; Fenoldopam 10^−4M 60 Min,2.27 OD
same,"Release of LDH (OD), OD Duplicates",[11]; Fenoldopam 10^−4M 60 Min,2.733 OD and 1.807 OD
same,"Release of LDH (OD), Average OD",[11]; Fenoldopam 10^−5M 60 Min,2.9645 OD
same,"Release of LDH (OD), OD Duplicates",[11]; Fenoldopam 10^−5M 60 Min,2.907 OD and 3.022 OD
same,"Release of LDH (OD), Average OD",[11]; Fenoldopam 10^−6M 60 Min,0.7625 OD
same,"Release of LDH (OD), OD Duplicates",[11]; Fenoldopam 10^−6M 60 Min,0.759 OD and 0.766 OD
same,"Affinity, in words",D2-like receptors,no significant affinity
